Results taken from patent publication US6048840A, “Hypoglycaemic peptides” (Monash University, priority 1987, dated 2000).
Non-standard residues stand in square brackets, D forms with d. No end group written: not given here.

Columns and labels:
[1] = system: cultured muscle cells (L6 rat skeletal muscle cell line); assay: Cultured cell assay for stimulation of glucose uptake; type: cell-based; conditions: peptide 10 μg/ml
Description: (§1) In these assays collagenase-dispersed rat adipocytes, cultured muscle cells (L6 rat skeletal muscle cell line) and hemidiaphragm preparations were employed.
(§2) The effect of the β imide form peptides on glucose metabolism is further shown by their ability to stimulate glucose uptake and glycogen synthesis by cultured muscle cells and isolated rat hemidiaphragms.

[2] = system: isolated rat hemidiaphragms; assay: Isolated muscle assay for stimulation of glycogen synthesis; type: cell-based; conditions: peptide 100 μg/ml
Description: as §1, §2

[3] = system: rats; assay: Change in blood glucose level in rats following intravenous injection of peptides; type: in vivo, rat
Description: (i) Effect on basal blood glucose levels
Values are changes (means ±SEM) of blood glucose from the basal level (4.0-4.4 mmol glucose/l) at time 0. Differences between the control and test groups were statistically evaluated according to Student's t-test. N.S. indicates 2P>0.05.

CYLSRLFDNA [Pep P168]
Rate of Increase from Basal (glucose uptake) [1]: 4.0 μmol glucose/hour

CYLSRLFDNA [Pep P202]
Rate of Increase from Basal (glucose uptake) [1]: 1.9 μmol glucose/hour
Rate of Increase from Basal (glycogen synthesis) [2]: 0.44 μmol glycogen/g tissue/h

CYLSRLFDNN [Pep P197]
Rate of Increase from Basal (glycogen synthesis) [2]: 0.17 μmol glycogen/g tissue/h

LSKLFDNA [Pep P090]
Rate of Increase from Basal (glycogen synthesis) [2]: 0.16 μmol glycogen/g tissue/h

LSRIFDNA [Pep P087]
Rate of Increase from Basal (glycogen synthesis) [2]: 0.36 μmol glycogen/g tissue/h

LSRLFDNA [Pep P051, b240 implies β imide form]
Rate of Increase from Basal (glucose uptake) [1]: 3.3 μmol glucose/hour
Rate of Increase from Basal (glycogen synthesis) [2]: 0.74 μmol glycogen/g tissue/h

LSRLFDNAG [Pep P063]
Rate of Increase from Basal (glucose uptake) [1]: 1.9 μmol glucose/hour

LSRLFDQA [Pep P076]
Rate of Increase from Basal (glycogen synthesis) [2]: 0.30 μmol glycogen/g tissue/h

LSRLHDNA [Pep P078]
Rate of Increase from Basal (glycogen synthesis) [2]: 0.11 μmol glycogen/g tissue/h

LSRL[dF]DNA [Pep P057]
Rate of Increase from Basal (glucose uptake) [1]: 2.0 μmol glucose/hour

LSRVFDNA [Pep P086]
Rate of Increase from Basal (glucose uptake) [1]: 4.9 μmol glucose/hour

Pep (6-15): α-form synthetic peptide equivalent to hGH residues 6-15 (LSRLFDNAML; Somatotropin; UniProt P01241 32-41, looked up, fragment)
Difference from control means ([3]; i.v., peptide 0.5 μmol/100 g, control decrease 1.05): 0.21 mmol/L
Hypoglycaemic effect / activity in words ([3]; intravenous injection of peptide): active only in the β imide form
Decrease in blood glucose from basal levels ([3]; intravenous injection, peptide 0.5 μmol/100 g, basal level 4.0-4.4 mmol glucose/l at time 0): 1.26 mmol glucose/l

SRLFDNA [Pep P015, synthetic peptide; b240 implies β imide form]
Rate of Increase from Basal (glucose uptake) [1]: 1.5 μmol glucose/hour
